≈ marks a conversion by molar mass, not a printed value. Calls of active or inactive are those of the source. The rule behind the calls is not given here. Positions of bridges follow the written chain, without caps; N, C: chain ends. Residues, ends and D or L forms follow the SMILES beside them. Groups on a side chain read outwards from the residue. Chains are numbered I, II in the order given. *: point of attachment. Lauroyl = CCCCCCCCCCCC(=O)*; Octanoyl = CCCCCCCC(=O)*; Butyryl = CCCC(=O)*
What was measured:
[1] = test system: Candida albicans; assay: Antifungal activity against Candida albicans cgmcc 2.2086 assessed as inhibition of fungal growth incubated for 48 hrs; assay type: functional
[2] = test system: Candida albicans; assay: Antifungal activity against fluconazole-resistant Candida albicans 56214 assessed as inhibition of fungal growth incubated for 48 hrs; assay type: functional
[3] = test system: Candida albicans; assay: Antifungal activity against Candida albicans SP 3931 assessed as inhibition of fungal growth incubated for 48 hrs; assay type: functional
[4] = test system: Candida albicans; assay: Antifungal activity against Candida albicans 58288 assessed as inhibition of fungal growth incubated for 48 hrs; assay type: functional
[5] = test system: Candida albicans; assay: Antifungal activity against Candida albicans SP 3903 assessed as inhibition of fungal growth incubated for 48 hrs; assay type: functional
[6] = test system: Candida albicans; assay: Antifungal activity against Candida albicans 17546 assessed as inhibition of fungal growth incubated for 48 hrs; assay type: functional
[7] = test system: Candida albicans; assay: Antifungal activity against Candida albicans 14936 assessed as inhibition of fungal growth incubated for 48 hrs; assay type: functional
[8] = test system: Candida albicans; assay: Antifungal activity against Candida albicans 2.3989 assessed as inhibition of fungal growth incubated for 48 hrs; assay type: functional
[9] = test system: Candida albicans; assay: Antifungal activity against Candida albicans SP 3902 assessed as inhibition of fungal growth incubated for 48 hrs; assay type: functional
[10] = Toxicity against human RBC assessed as hemolysis rate at 128 ug/ml incubated for 1 hr; assay type: cell-based, Erythrocyte; conditions: red blood cells (RBC), dose 128 µg/ml, read-out: Activity
[11] = test system: HEK-293T; assay: Cytotoxicity against human HEK293T cells assessed as cell viability at 8 to 128 ug/ml incubated for 4 hrs by MTT assay; assay type: toxicity, cell-based; conditions: dose 8-128 µg/ml
[12] = Cytotoxicity against human HEK293T cells assessed as cell survival rate at 128 ug/ml incubated for 4 hrs by MTT assay; assay type: toxicity, cell-based, HEK-293T; conditions: dose 128 µg/ml, read-out: Activity
[13] = Cytotoxicity against mouse RAW264.7 cells assessed as cell survival rate at 128 ug/ml incubated for 4 hrs by MTT assay; assay type: toxicity, cell-based; conditions: dose 128 µg/ml, read-out: Activity
[14] = test system: Candida albicans; assay: Antifungal activity against fluconazole-resistant Candida albicans 56214 infected in ICR mouse assessed as wound healing with appearance of new skin tissue at 1 mg/ml administered topically bid for 3 days starting at 12 hrs post-infection and measured for 6 days; assay type: functional, organism-based; conditions: time 6.0 day
[15] = test system: Candida albicans; assay: Antifungal activity against fluconazole-resistant Candida albicans 56214 infected in ICR mouse assessed as elimination of fungal hyphae on the infected skin at 1 mg/ml administered topically bid for 3 days starting at 12 hrs post-infection and measured after 7 days by PAS staining; assay type: functional, organism-based; conditions: time 7.0 day
[16] = test system: Candida albicans; assay: (§1) Antifungal activity against fluconazole-resistant Candida albicans 56214 infected in ICR mouse assessed as reduction in severity of skin infection at 1 mg/ml administered topically bid for 3 days starting at 12 hrs post-infection and measured after 7 days by PAS staining based analysis; assay type: functional, organism-based; conditions: time 7.0 day
[17] = test system: Candida albicans; assay: as §1, with “in oxidative stress by measuring decrease in ROS accumulation in” for “in severity of”, “skin wounds” for “skin infection”, “by fluorescence” for “by PAS”; assay type: functional, organism-based; conditions: time 7.0 day
[18] = test system: Candida albicans; assay: Antifungal activity against fluconazole-resistant Candida albicans 56214 infected in ICR mouse assessed as reduction in IL-6 expression in skin wound at 1 mg/ml administered topically bid for 3 days starting at 12 hrs post-infection and measured after 7 days by immunofluorescence analysis; assay type: functional, organism-based; conditions: time 7.0 day
[19] = test system: Candida albicans; assay: Antifungal activity against fluconazole-resistant Candida albicans 56214 infected in ICR mouse assessed as reduction in TNF-alpha expression in skin wound at 1 mg/ml administered topically bid for 3 days starting at 12 hrs post-infection and measured after 7 days by immunofluorescence analysis; assay type: functional, organism-based; conditions: time 7.0 day

CCCCCCCCCCCC(=O)NCC(=O)NCC(=O)NCC(=O)N[C@@H](CCCCNC(=O)[C@@H]1CCCN1C(=O)[C@H](CCCNC(=N)N)NC(=O)[C@@H]1CCCN1C(=O)[C@H](CCCNC(=N)N)NC(=O)[C@@H]1CCCN1C(=O)[C@@H](N)CCCNC(=N)N)C(=O)N[C@@H](CCCCNC(=O)[C@@H]1CCCN1C(=O)[C@H](CCCNC(=N)N)NC(=O)[C@@H]1CCCN1C(=O)[C@H](CCCNC(=N)N)NC(=O)[C@@H]1CCCN1C(=O)[C@@H](N)CCCNC(=N)N)C(=O)N[C@@H](CCCNC(=N)N)C(=O)N1CCC[C@H]1C(=O)N[C@@H](CCCNC(=N)N)C(=O)N1CCC[C@H]1C(=O)N[C@@H](CCCNC(=N)N)C(=O)N1CCC[C@H]1C(N)=O (I: Lauroyl-GGGKKRPRPRP-NH2 / II: H-RPRPRP / III: H-RPRPRP; amide I:4-II:C, I:5-III:C)
MIC [1]: 16 µM (≈ 46.5 µg/mL)
MIC [2]: 8 µM (≈ 23.3 µg/mL)
MIC [3]: 32 µM (≈ 93 µg/mL)
MIC [4]: 32 µM (≈ 93 µg/mL)
MIC [5]: 8 µM (≈ 23.3 µg/mL)
MIC [6]: 32 µM (≈ 93 µg/mL)
MIC [7]: 16 µM (≈ 46.5 µg/mL)
MIC [8]: 64 µM (≈ 186 µg/mL)
MIC [9]: 8 µM (≈ 23.3 µg/mL)
hemolysis at 1 h, 128 ug/ml [10]: < 2%
Activity [11]: Non-toxic
viability at 4 h, 128 ug/ml [12]: 95%
viability at 4 h, 128 ug/ml [13]: 50%

CCCCCCCC(=O)NCC(=O)NCC(=O)NCC(=O)N[C@@H](CCCCNC(=O)[C@@H]1CCCN1C(=O)[C@H](CCCNC(=N)N)NC(=O)[C@@H]1CCCN1C(=O)[C@H](CCCNC(=N)N)NC(=O)[C@@H]1CCCN1C(=O)[C@@H](N)CCCNC(=N)N)C(=O)N[C@@H](CCCCNC(=O)[C@@H]1CCCN1C(=O)[C@H](CCCNC(=N)N)NC(=O)[C@@H]1CCCN1C(=O)[C@H](CCCNC(=N)N)NC(=O)[C@@H]1CCCN1C(=O)[C@@H](N)CCCNC(=N)N)C(=O)N[C@@H](CCCNC(=N)N)C(=O)N1CCC[C@H]1C(=O)N[C@@H](CCCNC(=N)N)C(=O)N1CCC[C@H]1C(=O)N[C@@H](CCCNC(=N)N)C(=O)N1CCC[C@H]1C(N)=O (I: Octanoyl-GGGKKRPRPRP-NH2 / II: H-RPRPRP / III: H-RPRPRP; amide I:4-II:C, I:5-III:C)
MIC [1]: 2 µM (≈ 5.7 µg/mL)
MIC [2]: 8 µM (≈ 22.8 µg/mL)
MIC [3]: 16 µM (≈ 45.6 µg/mL)
MIC [4]: 8 µM (≈ 22.8 µg/mL)
MIC [5]: 8 µM (≈ 22.8 µg/mL)
MIC [6]: 4 µM (≈ 11.4 µg/mL)
MIC [7]: 4 µM (≈ 11.4 µg/mL)
MIC [8]: 64 µM (≈ 182 µg/mL)
MIC [9]: 16 µM (≈ 45.6 µg/mL)
hemolysis at 1 h, 128 ug/ml [10]: < 2%
Activity [11]: Non-toxic
viability at 4 h, 128 ug/ml [12]: 95%

OC(Cn1cncn1)(Cn1cncn1)c1ccc(F)cc1F [FLUCONAZOLE]
MIC [1]: 4 µM (≈ 1.23 µg/mL)
MIC [2]: > 128 µM
MIC [3]: 2 µM (≈ 0.613 µg/mL)
MIC [4]: 8 µM (≈ 2.45 µg/mL)
MIC [5]: 2 µM (≈ 0.613 µg/mL)
MIC [6]: 2 µM (≈ 0.613 µg/mL)
MIC [7]: 2 µM (≈ 0.613 µg/mL)
MIC [8]: 4 µM (≈ 1.23 µg/mL)
MIC [9]: 4 µM (≈ 1.23 µg/mL)

CCCC(=O)NCC(=O)NCC(=O)NCC(=O)N[C@@H](CCCCNC(=O)[C@@H]1CCCN1C(=O)[C@H](CCCNC(=N)N)NC(=O)[C@@H]1CCCN1C(=O)[C@@H](N)CCCNC(=N)N)C(=O)N[C@@H](CCCCNC(=O)[C@@H]1CCCN1C(=O)[C@H](CCCNC(=N)N)NC(=O)[C@@H]1CCCN1C(=O)[C@@H](N)CCCNC(=N)N)C(=O)N[C@@H](CCCNC(=N)N)C(=O)N1CCC[C@H]1C(=O)N[C@@H](CCCNC(=N)N)C(=O)N1CCC[C@H]1C(N)=O (Butyryl-GGGK([Pro-Arg-Pro-Arg])K([Pro-Arg-Pro-Arg])RPRP-NH2)
MIC [1]: > 128 µM
MIC [2]: > 128 µM
MIC [3]: > 128 µM
MIC [4]: > 128 µM
MIC [5]: > 128 µM
MIC [6]: > 128 µM
MIC [7]: > 128 µM
MIC [8]: > 128 µM
MIC [9]: > 128 µM
hemolysis at 1 h, 128 ug/ml [10]: < 2%
Activity [11]: Non-toxic
viability at 4 h, 128 ug/ml [12]: 95%

C[C@@H]1[C@H](O)[C@@H](C)/C=C/C=C/C=C/C=C/C=C/C=C/C=C/[C@H](O[C@@H]2O[C@H](C)[C@@H](O)[C@H](N)[C@@H]2O)C[C@@H]2O[C@](O)(C[C@@H](O)C[C@@H](O)[C@H](O)CC[C@@H](O)C[C@@H](O)CC(=O)O[C@H]1C)C[C@H](O)[C@H]2C(=O)O
Activity [14]: Active
Activity [15]: Active
Activity [16]: Active
Activity [17]: Active
Activity [18]: Active
Activity [19]: Active

CCCCCCCCCCCC(=O)NCC(=O)NCC(=O)NCC(=O)N[C@@H](CCCCNC(=O)[C@@H]1CCCN1C(=O)[C@H](CCCNC(=N)N)NC(=O)[C@@H]1CCCN1C(=O)[C@@H](N)CCCNC(=N)N)C(=O)N[C@@H](CCCCNC(=O)[C@@H]1CCCN1C(=O)[C@H](CCCNC(=N)N)NC(=O)[C@@H]1CCCN1C(=O)[C@@H](N)CCCNC(=N)N)C(=O)N[C@@H](CCCNC(=N)N)C(=O)N1CCC[C@H]1C(=O)N[C@@H](CCCNC(=N)N)C(=O)N1CCC[C@H]1C(N)=O (Lauroyl-GGGK([Pro-Arg-Pro-Arg])K([Pro-Arg-Pro-Arg])RPRP-NH2)
MIC [1]: 16 µM (≈ 34.3 µg/mL)
MIC [2]: 64 µM (≈ 137 µg/mL)
MIC [3]: 64 µM (≈ 137 µg/mL)
MIC [4]: 64 µM (≈ 137 µg/mL)
MIC [5]: 64 µM (≈ 137 µg/mL)
MIC [6]: 32 µM (≈ 68.7 µg/mL)
MIC [7]: 32 µM (≈ 68.7 µg/mL)
MIC [8]: 64 µM (≈ 137 µg/mL)
MIC [9]: 32 µM (≈ 68.7 µg/mL)
hemolysis at 1 h, 128 ug/ml [10]: < 2%
Activity [11]: Non-toxic
viability at 4 h, 128 ug/ml [12]: 95%

CCCCCCCC(=O)NCC(=O)NCC(=O)NCC(=O)N[C@@H](CCCCNC(=O)[C@@H]1CCCN1C(=O)[C@H](CCCNC(=N)N)NC(=O)[C@@H]1CCCN1C(=O)[C@@H](N)CCCNC(=N)N)C(=O)N[C@@H](CCCCNC(=O)[C@@H]1CCCN1C(=O)[C@H](CCCNC(=N)N)NC(=O)[C@@H]1CCCN1C(=O)[C@@H](N)CCCNC(=N)N)C(=O)N[C@@H](CCCNC(=N)N)C(=O)N1CCC[C@H]1C(=O)N[C@@H](CCCNC(=N)N)C(=O)N1CCC[C@H]1C(N)=O (Octanoyl-GGGK([Pro-Arg-Pro-Arg])K([Pro-Arg-Pro-Arg])RPRP-NH2)
MIC [1]: > 128 µM
MIC [2]: > 128 µM
MIC [3]: > 128 µM
MIC [4]: > 128 µM
MIC [5]: > 128 µM
MIC [6]: > 128 µM
MIC [7]: > 128 µM
MIC [8]: > 128 µM
MIC [9]: > 128 µM
hemolysis at 1 h, 128 ug/ml [10]: < 2%
Activity [11]: Non-toxic
viability at 4 h, 128 ug/ml [12]: 95%

— ChEMBL document CHEMBL6121051, “Dendritic Antifungal Peptides as Potent Agents against Drug-Resistant Candida albicans and Biofilm” (J Med Chem, 2025)
